Measured values published in patent US12091398B2, “PD-L1 antagonist compound” (ADLAI NORTYE BIOPHARMA CO., LTD., priority 2019, dated 2024).

Tested on: PD-1/PD-L1 interaction
Assay: Cell based PD-1/PD-L1 NFAT reporter assay
Set-up: species or system human
Conditions: Homo sapiens, 6 h, PD-1/NFAT-Reporter-Jurkat cells co-cultured with TCR activator/PD-L1-CHO cells; 6 hour incubation; luciferase; calibrated to Atezolizumab 10 nM; read-out: Absolute EC50
Experimental: Cell Based PD-1/PD-L1 NFAT Reporter Assay
Compounds of the present patent were tested in a cell based PD-1/PD-L1 NFAT reporter assay.
The cell-based luciferase reporter assay is used for monitoring the PD-1/PD-L1 inhibitor by characterizing the biological activity of PD-1: PD-L1 interactions in cellular context. PD-1/NFAT-Reporter-Jurkat cells stably over-expressing human PD-1 with NFAT reporter are used as effector cells. TCR activator/PD-L1—CHO cells over-expressing PD-L1 and an engineered T cell receptor (TCR) activator are used as target cells. When these two cells are co-cultivated, TCR complexes on effector cells are activated by TCR activator on target cells, resulting in expression of the NFAT luciferase reporter. However, PD1 and PD-L1 (or PD-L2) ligation prevents TCR activation and suppresses the NFAT-responsive luciferase activity. This inhibition can be specifically reversed by anti-PD1 or anti-PD-L1 inhibitors. PD1/PD-L1 inhibitors block PD1:PD-L1 interaction and promote TCR activation, resulting in reactivation of the NFAT responsive luciferase reporter.
PD-1/NFAT—Reporter—Jurkat cell (Cat: 60535) and TCR activator/PD-L1—CHO cell (Cat: 60536) were purchased from BPS Bioscience. Anti-human PD-L1 antibody (Atezolizumab, Cat: A2004) was purchased from Selleck; luciferase reporter gene expression detection kit (ONE-Glo™ Luciferase Assay System, Cat: E6120) was purchased from Promega; multifunction plate reader (SpectraMax i3x) was purchased from Molecular Devices.
PD-1/NFAT—Reporter—Jurkat cells and TCR activator/PD-L1—CHO cells were cultured in recommended media respectively.
Harvest TCR activator/PD-L1-CHO cells from culture and seed cells at a density of 35,000 cells per well into 96-well microplate in 100 µl of growth medium. Incubate cells at 37° C. in a CO2 incubator overnight. Next day, discard the culture media, add diluted compound in assay medium for 30 min. Anti-PD-L1 antibody (Atezolizumab, final concentration 10 nM) and 0.1% DMSO were the positive and negative control, respectively. Harvest the PD-1/NFAT-reporter-Jurkat cells by centrifugation and add to the wells. After 6 hour incubation, perform luciferase assay using the ONE-Glo™ Luciferase Assay System, following the manufacturer's assay protocol.
Anti-PD-L1 antibody (Atezolizumnab, 10 nM) was used as positive control to calibrate the inhibition rate using the following equation: % inhibition=(Sample luminescence/Average vehicle group luminescence−1)/(Average PD-L1 group luminescence/Average vehicle group luminescence−1)×100%.

| Compound | EC50 [nM] |
| --- | --- |
| O=C1CC(COc2cc(OCc3cccc(-c4cccc5c4cnn5CCCCN4CC[C@@H](O)C4)c3Br)c(Cl)cc2CN[C@@H](CO)C(=O)O)CN1 (some centres unmarked) [Compound 48] | 997 |
| O=C(O)[C@H](CO)NCc1cc(Cl)c(OCc2cccc(-c3cccc4c3cnn4CCCCN3CC[C@@H](O)C3)c2Br)cc1OCC(=O)N1CC[C@@H](O)C1 [Compound 49, (4-((2-bromo-3-(1-(4-((R)-3-hydroxypyrrolidin-1-yl)butyl)-1H-indazol-4-yl)benzyl)oxy)-5-chloro-2-(2-((R)-3-hydroxypyrrolidin-1-yl)-2-oxoethoxy)benzyl)-L-serine] | > 10000 |
| CCNC(=O)COc1cc(OCc2cccc(-c3cccc4c3cnn4CCCCN3CC[C@@H](O)C3)c2Br)c(Cl)cc1CN[C@@H](CO)C(=O)O [Compound 50] | 2820 |
| NC(=O)CNC(=O)COc1cc(OCc2cccc(-c3cccc4c3cnn4CCCCN3CC[C@@H](O)C3)c2Br)c(Cl)cc1CN[C@@H](CO)C(=O)O [Compound 51] | 3080 |
| CN(C)CCNC(=O)COc1cc(OCc2cccc(-c3cccc4c3cnn4CCCCN3CC[C@@H](O)C3)c2Br)c(Cl)cc1CN[C@@H](CO)C(=O)O [Compound 52] | > 10000 |
| COCCNC(=O)COc1cc(OCc2cccc(-c3cccc4c3cnn4CCCCN3CC[C@@H](O)C3)c2Br)c(Cl)cc1CN[C@@H](CO)C(=O)O [Compound 53] | > 10000 |
| Cc1c(OCCCN2CC[C@@H](O)C2)cccc1-c1cccc2c1cnn2Cc1cc(OCc2cncc(C#N)c2)c(CN[C@@H](CO)C(=O)O)cc1Cl [Compound 54, (5-chloro-2-((5-cyanopyridin-3-yl)methoxy)-4-((4-(3-(3-((R)-3-hydroxypyrrolidin-1-yl)propoxy)-2-methylphenyl)-1H-indazol-1-yl)methyl)benzyl)-L-serine] | 339 |
| N#Cc1cncc(COc2cc(Cn3ncc4c(-c5cccc(OCCCN6CC[C@@H](O)C6)c5Br)cccc43)c(Cl)cc2CN[C@@H](CO)C(=O)O)c1 [Compound 55, (4-((4-(2-bromo-3-(3-((R)-3-hydroxypyrrolidin-1-yl)propoxy)phenyl)-1H-indazol-1-yl)methyl)-5-chloro-2-((5-cyanopyridin-3-yl)methoxy)benzyl)-L-serine] | 1150 |
| COc1cc(OCc2cccc(-c3cccc4c3cnn4Cc3cc(OCc4cncc(C#N)c4)c(CN[C@@H](CO)C(=O)O)cc3Cl)c2C)c(Cl)cc1CN[C@@H](CO)C(=O)O [Compound 56, (4-((3-(1-(4-((((S)-1-carboxy-2-hydroxyethyl)amino)methyl)-2-chloro-5-((5-cyanopyridin-3-yl)methoxy)benzyl)-1H-indazol-4-yl)-2-methylbenzyl)oxy)-5-chloro-2-methoxybenzyl)-L-serine] | 163 |
| Cc1c(COc2cc(OCc3cncc(C#N)c3)c(CN[C@@H](CO)C(=O)O)cc2Cl)cccc1-c1cccc2c1cnn2Cc1cc(OCc2cncc(C#N)c2)c(CN[C@@H](CO)C(=O)O)cc1Cl [Compound 57, (4-((3-(1-(4-((((S)-1-carboxy-2-hydroxyethyl)amino)methyl)-2-chloro-5-((5-cyanopyridin-3-yl)methoxy)benzyl)-1H-indazol-4-yl)-2-methylbenzyl)oxy)-5-chloro-2-((5-cyanopyridin-3-yl)methoxy)benzyl)-L-serine] | 53 |
| N#Cc1cncc(COc2cc(OCc3cccc(-c4cccc5c4cnn5Cc4ccc(CN[C@@H](CO)C(=O)O)cc4)c3Br)c(Cl)cc2CN[C@@H](CO)C(=O)O)c1 [Compound 58, (4-((4-(2-bromo-3-((4-((((S)-1-carboxy-2-hydroxyethyl)amino)methyl)-2-chloro-5-((5-cyanopyridin-3-yl)methoxy)phenoxy)methyl)phenyl)-1H-indazol-1-yl)methyl)benzyl)-L-serine] | 1710 |
| N#Cc1cncc(COc2cc(OCc3cccc(-c4cccc5c4cnn5Cc4ccc(CN[C@@H](CO)C(=O)O)cc4Cl)c3Br)c(Cl)cc2CN[C@@H](CO)C(=O)O)c1 [Compound 59, (4-((4-(2-bromo-3-((4-((((S)-1-carboxy-2-hydroxyethyl)amino)methyl)-2-chloro-5-((5-cyanopyridin-3-yl)methoxy)phenoxy)methyl)phenyl)-1H-indazol-1-yl)methyl)-3-chlorobenzyl)-L-serine] | 220 |
| CC(CO)(CO)NCc1cc(Cl)c(Cn2ncc3c(-c4cccc5c4cnn5CCCN4CC[C@@H](O)C4)cccc32)cc1OCc1cncc(C#N)c1 [Compound 60, (R)-5-((4-chloro-2-(((1,3-dihydroxy-2-methylpropan-2-yl)amino)methyl)-5-((1′-(3-(3-hydroxypyrrolidin-1-yl)propyl)-1H,1′H-[4,4′-biindazol]-1-yl)methyl)phenoxy)methyl)nicotinonitrile] | 1850 |
| N#Cc1cncc(COc2cc(Cn3ncc4c(-c5cccc6c5cnn6Cc5cc(OCc6cncc(C#N)c6)c(CN[C@@H](CO)C(=O)O)cc5Cl)cccc43)c(Cl)cc2CN[C@@H](CO)C(=O)O)c1 [Compound 61, (2S,2'S)-2,2′-((((1H,1′H-[4,4′-biindazole]-1,1′-diylbis(methylene))bis(5-chloro-2-((5-cyanopyridin-3-yl)methoxy)-4,1-phenylene))bis(methylene))bis(azanediyl))bis(3-hydroxypropanoic acid)] | 124 |
| Cc1c(COc2cc(OCc3cncc(C#N)c3)c(CN[C@@H](CO)C(=O)OC(C)C)cc2Cl)cccc1-c1cccc2c1cnn2Cc1cc(OCc2cncc(C#N)c2)c(CN[C@@H](CO)C(=O)O)cc1Cl [Compound 64, (5-chloro-4-((4-(3-((2-chloro-5-((5-cyanopyridin-3-yl)methoxy)-4-((((S)-3-hydroxy-1-isopropoxy-1-oxopropan-2-yl)amino)methyl)phenoxy)methyl)-2-methylphenyl)-1H-indazol-1-yl)methyl)-2-((5-cyanopyridin-3-yl)methoxy)benzyl)-L-serine] | 550 |
| Cc1c(COc2cc(OCc3cncc(C#N)c3)c(CN[C@@H](CO)C(=O)O)cc2Cl)cccc1-c1cccc2c1cnn2Cc1cc(OCc2cncc(C#N)c2)c(CN[C@@H](CO)C(=O)OC(C)C)cc1Cl [Compound 65, (5-chloro-4-((3-(1-(2-chloro-5-((5-cyanopyridin-3-yl)methoxy)-4-((((S)-3-hydroxy-1-isopropoxy-1-oxopropan-2-yl)amino)methyl)benzyl)-1H-indazol-4-yl)-2-methylbenzyl)oxy)-2-((5-cyanopyridin-3-yl)methoxy)benzyl)-L-serine] | 418 |
| COc1cc(Cn2ncc3c(-c4cccc(COc5cc(OC)c(CN[C@@H](CO)C(=O)O)cc5Cl)c4C)cccc32)c(Cl)cc1CN[C@@H](CO)C(=O)O [Compound 66, (4-((3-(1-(4-((((S)-1-carboxy-2-hydroxyethyl)amino)methyl)-2-chloro-5-methoxybenzyl)-1H-indazol-4-yl)-2-methylbenzyl)oxy)-5-chloro-2-methoxybenzyl)-L-serine] | 307 |
| COc1cc(Cn2ncc3c(-c4cccc(COc5cc(OCc6cncc(C#N)c6)c(CN[C@@H](CO)C(=O)O)cc5Cl)c4C)cccc32)c(Cl)cc1CN[C@@H](CO)C(=O)O [Compound 67, (4-((4-(3-((4-((((S)-1-carboxy-2-hydroxyethyl)amino)methyl)-2-chloro-5-((5-cyanopyridin-3-yl)methoxy)phenoxy)methyl)-2-methylphenyl)-1H-indazol-1-yl)methyl)-5-chloro-2-methoxybenzyl)-L-serine] | 89 |
| COc1cc(OCc2cccc(-c3cccc4c3cnn4Cc3cc(OCc4cncc(C#N)c4)c(CNCCO)cc3Cl)c2C)c(Cl)cc1CNCCO [Compound 68, 5-((4-chloro-5-((4-(3-((2-chloro-4-(((2-hydroxyethyl)amino)methyl)-5-methoxyphenoxy)methyl)-2-methylphenyl)-1H-indazol-1-yl)methyl)-2-(((2-hydroxyethyl)amino)methyl)phenoxy)methyl)nicotinonitrile] | 348 |
| COc1cc(OCc2cccc(-c3cccc4c3cnn4Cc3cc(OCc4cncc(C#N)c4)c(CNC[C@@H]4CCC(=O)N4)cc3Cl)c2C)c(Cl)cc1CNC[C@@H]1CCC(=O)N1 [Compound 69, 5-((4-chloro-5-((4-(3-((2-chloro-5-methoxy-4-(((((S)-5-oxopyrrolidin-2-yl)methyl)amino)methyl)phenoxy)methyl)-2-methylphenyl)-1H-indazol-1-yl)methyl)-2-(((((S)-5-oxopyrrolidin-2-yl)methyl)amino)methyl)phenoxy)methyl)nicotinonitrile] | 157 |
